Assay results: PMC9818988, “SR Protein Kinase 1 Inhibition by TAF15” (Cells, 2022)

How the values were obtained:
[1] = test system: SRPK1; test: Pull-down of SRPK1 from HeLa cell extracts with immobilized GST-TAF15 fusion proteins; assay type: binding; details: 150 mM NaCl, 1% Triton X-100, 60 min, room temperature; Western blot with anti-SRPK1
Experimental: Incubation of GST, GST-TAF15, GST-TAF15(1–320), and GST-TAF15-RGG (2–3 μg each) immobilized on glutathione-Sepharose beads with HeLa cell extracts (∼200 μg of total protein) was performed in 50 mm Tris-HCl, pH 7.5, 150 mm NaCl, 1% Triton X-100, and 0.5 mm PMSF (cell extraction buffer) in a total volume of 0.5 mL for 60 min at room temperature. Bound SRPK1 was analyzed on 10% SDS-polyacrylamide gels and detected by Western blotting using the anti-SRPK1 monoclonal antibody (611072, BD Biosciences, San Jose, CA, USA), an alkaline phosphatase-coupled goat anti-mouse secondary antibody, and a 5-bromo-4-chloro-3-indolyl phosphate/nitro blue tetrazolium substrate.

[2] = test system: SRPK1; test: In vitro kinase inhibition assay: phosphorylation of GST-LBRNt(62–92) by GST-SRPK1; assay type: biochemical; details: for Effect of TAF15 fusion proteins on SRPK1 activity (phosphorylation of GST-LBRNt(62–92)): 1, 2, 4, 6, 8 μg GST-TAF15, 1.5, 3, 6, 10, 15 μg GST-TAF15-RGG, 2, 4, 8, 12, 16 μg GST-TAF15(1-320), 25 μL, [γ-32P]ATP, Cherenkof counting, two independent experiments; for Effect of TAF15 fusion proteins on SRPK1 activity (phosphorylation of GST-LBRNt(62–92)) / Inhibition of SRPK1 activity (phosphorylation of GST-LBRNt(62–92) by GST-SRPK1): 30 °C, 30 min; for Inhibition of SRPK1 activity (phosphorylation of GST-LBRNt(62–92) by GST-SRPK1): peptide 0.1, 0.2, 0.3, 0.4 and 0.5 mM, 25 μM ATP, autoradiography, bands counted, means ± SE of two independent experiments (Figure 8); for Relative inhibitory activity on SRPK1 among the three RGG peptides (proportional to number of RGG repeats): peptide 0.1–0.5 mM, substrate GST-LBRNt(62–92), two independent experiments (Figure 8B)
Experimental: (§1) Kinase assays were carried out at 30 °C in a total volume of 25 μL containing 12 mM Hepes pH 7.5, 10 mM MgCl2, 25 μM ATP, 1–3 μg of the appropriate substrate (GST-LBRNt(62–92) or GST-TAF15 or His-TAF15), and 1–2 μg GST-SRPK1. For the inhibition assays, GST-SRPK1 was incubated with GST-LBRNt(62–92) under the assay conditions in the presence of increasing concentrations of GST-TAF15, GST-TAF15-RGG, and GST-TAF15(1–320) or Nucl, SAFA, and A2B1 peptides, as indicated. Nucl ([…]), SAFA ([…]) and A2B1 ([…]) peptides, comprising the RGG repeats of nucleolin, HNRPU (SAFA), and HNRNPA2B1, respectively, were provided by GeneCust, Boynes, France. The samples were incubated for 30 min, and the reaction was stopped by adding 6 μL of 5 × SDS sample buffer and heating at 95 °C for 3 min. Phosphoproteins were detected via autoradiography using Super RX (a Fuji medical X-ray film), and signals were quantified by excising the radioactive bands from the gel and scintillation counting. p-values were determined using a two-tailed, unpaired student’s t-test.

[3] = test system: SRPK1; test: In vitro phosphorylation of TAF15 as substrate by GST-SRPK1; assay type: biochemical; details: bacterially produced GST-SRPK1; GST-LBRNt(62–92) as positive substrate; autoradiography
Experimental: as §1

[4] = test system: SRPK1; test: Pull-down of His-TAF15 with GST-SRPK1 immobilized on glutathione-Sepharose beads; assay type: binding; details: 60 min, room temperature, Coomassie blue staining
Experimental: Incubation of GST and GST-SRPK1 (2–3 μg each) immobilized on glutathione-Sepharose beads with His-TAF15 (2 μg) was performed in 20 mm Hepes, pH 7.5, 50 mM NaCl, and 1% Triton X-100 in a total volume of 0.5 mL. Similar incubations were also performed in the presence of 150 and 300 mM NaCl to test the stringency of the interaction. The incubations were carried out for 60 min at room temperature. The beads were harvested, washed three times with 500 μL of binding buffer, and resuspended in 25 μL of SDS sample buffer. Bound His-TAF15 was analyzed on 10% SDS-polyacrylamide gels and detected by Coomassie Blue staining.

GST-TAF15-RGG: C-terminal RGG domain (aa 319–589) of TAF15 as GST-fusion protein
Binding of SRPK1 from HeLa cell extracts to immobilized GST fusion protein [1]: could bind to SRPK1 | Effect of TAF15 fusion proteins on SRPK1 activity (phosphorylation of GST-LBRNt(62–92)) [2]: inhibited SRPK1 as potently as full-length TAF15

GST-TAF15: full-length TAF15 as GST-fusion protein produced in bacteria
Phosphorylation of TAF15 by SRPK1 (substrate test) [3]: did not modify | Effect of TAF15 fusion proteins on SRPK1 activity (phosphorylation of GST-LBRNt(62–92)) [2]: inhibited the phosphorylation of GST-LBRNt(62–92) in a dose-responsive manner

His-TAF15: full-length TAF15 with an 8xHis tag fused to its N-terminus
Phosphorylation of TAF15 by SRPK1 (substrate test) [3]: unable to phosphorylate | Binding of TAF15 to GST-SRPK1 in pull-down ([4]; increased salt, 0.3 M NaCl): reduced binding | Binding of TAF15 to GST-SRPK1 in pull-down ([4]; physiological ionic strength, 50–150 mM NaCl): binds SRPK1

RGGGHRGRGGFNMRGGNFRGGAPGNRGGY [SAFA, peptide comprising the RGG repeats of HNRPU (SAFA), provided by GeneCust]
Inhibition of SRPK1 activity (phosphorylation of GST-LBRNt(62–92) by GST-SRPK1) [2]: could inhibit SRPK1

RGGGRGGFGGRGGGRGGRGGFGGRGRGGFGGRGGFRGGRGG [Nucl, peptide comprising the RGG repeats of nucleolin, provided by GeneCust]
Inhibition of SRPK1 activity (phosphorylation of GST-LBRNt(62–92) by GST-SRPK1) [2]: could inhibit SRPK1 | Relative inhibitory activity on SRPK1 among the three RGG peptides (proportional to number of RGG repeats) [2]: most potent inhibitory activity

RGGNFGFGDSRGGGGNFGPGPGSNFRGG [A2B1, peptide comprising the RGG repeats of HNRNPA2B1, provided by GeneCust]
Inhibition of SRPK1 activity (phosphorylation of GST-LBRNt(62–92) by GST-SRPK1) [2]: could inhibit SRPK1 | Relative inhibitory activity on SRPK1 among the three RGG peptides (proportional to number of RGG repeats) [2]: weaker

B1: GST-TAF15(1–320): N-terminal part (aa 1–320) of TAF15 as GST-fusion protein (protein)
chain: MSDSGSYGQSGGEQQSYSTYGNPGSQGYGQASQSYSGYGQTTDSSYGQNYSGYSSYGQSYSQSYGGYENQKQSSYSQQPYNNQGQQQNMESSGSQGGRAPSYDQPDYGQQDSYDQQSGYDQHQGSYDEQSNYDQQHDSYSQNQQSYHSQRENYSHHTQDDRRDVSRYGEDNRGYGGSQGGGRGRGGYDKDGRGPMTGSSGGDRGGFKNFGGHRDYGPRTDADSESDNSDNNTIFVQGLGEGVSTDQVGEFFKQIGIIKTNKKTGKPMINLYTDKDTGKPKGEATVSFDDPPSAKAAIDWFDGKEFHGNIIKVSFATRRPE
modifications: left off: GST, end not stated, kept
notes: N-terminal part (aa 1–320) of TAF15 as GST-fusion protein
Binding of SRPK1 from HeLa cell extracts to immobilized GST fusion protein [1]: no such interaction | Effect of TAF15 fusion proteins on SRPK1 activity (phosphorylation of GST-LBRNt(62–92)) [2]: did not affect the kinase activity | Effect of TAF15 fusion proteins on SRPK1 activity (phosphorylation of GST-LBRNt(62–92)) ([2]; listed as GST-TAF15(1-320)): has no effect on SRPK1 activity
